Measured values: patent publication US20240067931A1, “METHODS AND COMPOSITIONS FOR SMALL MOLECULE BASED PANCREATIC BETA CELL INDUCTION” (Trailhead Biosystems Inc., priority 2022, published 2024)
Ends that are not written are not given here.

What was measured:
Type in all cases: cell-based, human
HNF1b = experiment: HD-DoE perturbation matrix on iPSC line CR01, optimization of HNF1b activation (MODDE modelling)
Text: (§1) FIG. 2 Optimization of HNF1B from the iPSC-line CR01. A culture of the iPSC cell line Cr01 was exposed to an HD-DoE perturbation matrix composed of compounds regulating the BMP, retinoid, TGF-β and FGF pathways. Pathways previously shown to be involved in the differentiation of dorsal foregut endoderm were utilized in this analysis. MODDE software was used to predict the optimal condition for maximizing HNF1b activation. Predicted factor additives for this optimization and the relative expression under these conditions for the genes measured are shown.
(§2) To assay the efficacy of a potentially clinical grade iPSC line the NCRM1 cell line was chosen. An HD-DoE based optimization was used to validate the HNF1b and FOXA2 optimizers for this cell line. The HD-DOE method was applied with the intent to find conditions for induction of endoderm-expressed genes, directly from the pluripotent stem cell state. This example utilizes a method previously described by Bukys et al. (2020) Iscience 23:101346. The method employs computerized design geometries to simultaneously test multiple process inputs and offers mathematical modeling of a deep effector/response space. The method allows for finding combinatorial signaling inputs that control a complex process, such as dauring cell differentiation. It allows testing of multiple plausible critical process parameters, as such parameters impact output responses, such as gene expression. Because gene expression provides hallmark features of the phenotype of, for example, a human cell, the method can be applied to identify, and understand, which signaling pathways control cell fate.
(§3) To develop a cell culture recipe for each stage, the impact of agonists and antagonists of multiple signaling pathways (herein called effectors) on the expression of pre-selected genes was tested and modeled. The impact of each effector on gene expression level is defined by a parameter called factor contribution that is calculated for each effector during the modeling. These effectors are small molecules or proteins that are commonly used during stepwise differentiation of stem cells to specific fates. Choice of the effectors were based on current literature on differentiation of stem cells to endoderm progenitors.
(§4) In both optimizations, it was shown that BMP pathway inhibition was the most crucial component of the optimization with factor contribution factors of 31.26 and 31.11 for LDN193189 in both the optimization of HNF1b (FIG. 2) and FOXA2 (FIG. 3), respectively. While MEK pathway inhibition with PD0325901 was critical for both HNF1b and FOXA2 optimization (factor contributions of 15.01 and 29.01, respectively), FOXA2 activation was more dependent on MEK inhibition. The other two pathways that were determined to be crucial for controlling DFE activation were retinoid signaling and TGF-β pathway inhibition. These two pathways had differential effects on FOXA2 and HNF1b.

FOXA2 [1] = experiment: HD-DoE perturbation matrix on iPSC line CR01, optimization of FOXA2 activation (MODDE modelling)
Text: as §1, with “FIG. 3” for “FIG. 2”, “of FOXA2” for “of HNF1B”, “foregut endoderm.” for “foregut endoderm were utilized in this analysis.”, “maximizing FOXA2” for “maximizing HNF1b”, “for all” for “for the”
as §2, §3, §4

FOXA2 [2] = experiment: Immunohistochemical staining of iPSC (CR01) cultures after three days in additive combinations; details: added to RA and LDN, FIG. 9
Text: FIG. 9 Achieving optimal FOXA2 expression. IPSC (CR01) cultures were exposed to media containing different combination of the additive retinoic acid, LDN193189, A8301 and/or PD0325 as indicated on the left side of the stainings. After three days, cultures were fixed and subjected to immunohistochemical staining for the protein antigens of FOXA2 and HNF1b.

INS = experiment: HD-DoE screening for optimal de novo beta cell induction (stage 3 cultures, 3 day perturbation), INS induction
Protocol: FIG. 18 HD-DoE screening for optimal de novo beta cell induction. Culture of the iPSC cell line CR01 were differentiated to a DFE state for 3 days. These cultures were then incubated in the presence of stage 2 media for an additional 3 days. These cultures were then incubated for an additional 5 days in the presence of GSI-XX and A8301 followed by a 3 day incubation in the presence of a perturbation matrix composed of the compounds indicated in the different panels. This was performed 3 separate times (once for each of the 3 panels). These HD-DoE experiments were then analyzed using MODDE software for maximal induction of insulin. The predicted results are shown.
FIG. 20 HD-DoE screening for optimal de novo beta cell induction. Cultures of the iPSC cell line CR01 were differentiated to a DFE state for 3 days. These cultures were then incubated in the presence of stage 2 media for an additional 3 days. These cultures were then incubated for an additional 5 days in the presence of GSI-XX and A8301 followed by a 3 day incubation in the presence of a perturbation matrix composed of the compounds indicated in the different panels. This was performed 4 separate times (once for each of the 4 panels). These HD-DoE experiments were then analyzed using MODDE software for the maximal induction of Insulin. The predicted results are shown.
(§5) FIGS. 22-25. Dynamic profiling of endocrine sub-type regulation. One of the HD-DoE experiments shown in Example 19 was analyzed using MODDE software and dynamic profiling of the endocrine products GCG, SST and INS are shown.
To define factors contributing to the activation of INS, a series of HD-DoE perturbations were performed using factors chosen to target different aspects of beta cell biology.
To define factors contributing to the activation of INS, a series HD-DoE perturbations were performed using factors chosen to target different aspects of beta cell biology.

PDX1 = experiment: HD-DoE perturbation matrix on DFE culture, modelling for maximal PDX1 induction
Text: FIG. 11 Modelling for maximal PDX1 induction. Cultures of the iPSC cell line Cr01 was differentiated to a DFE state and then subjected to an HD-DoE perturbation matrix composed of the compounds indicated in the figure. MODDE software was used to predict the optimal condition for maximizing PDX1 activation. Predicted factor additives for this optimization and the relative expression under these conditions for the genes measured are shown.
FIG. 12 Coefficient plots show main effectors for pancreatic progenitor generation from a DFE precursor. Coefficients for the HD-DoE design shown in Example 9 are shown for PDX1 and PTF1A. The co-expression of these two genes is indicative of a pancreatic field.
To determine the best way for inducing a pancreatic fate from a DFE progenitor, a subsequent HD-DoE analysis was performed. Exposing a DFE culture to a perturbation matrix composed of all previously identified effectors shown to have a positive effect on PDX1 activation was used to define optimal conditions for PDX1 induction.

INS (beta cell marker) = experiment: HD-DoE on DFE culture, dynamic profiling of endocrine sub-type markers: INS; details: PDX1 optimizer, dynamic profiling FIG. 14
Text: FIG. 14 Dynamic profiling exploring endocrine cell sub-types. IPSC cultures were differentiated to DFE cultures and then subjected a HD-DoE matrix as outlined in Example 10. MODDE software was used to display the dynamic profiles of GCG, INS and SST, which provide a representable characterization of the different pancreatic endocrine subtypes corresponding to alpha, beta, and delta cells, respectively.

[3] = test system: GCG, SST, PDX1, PAX4, MAFA and NKX2.2; experiment: HD-DoE stage 3 screening, heat map and dynamic profiling of endocrine and beta cell genes; details: heat maps FIG. 19 and FIG. 21
Text: FIG. 19 Heat map showing descending factor contributions for the induction of INS. The three HD-DoE experiments shown in Example 17 were used for modeling the maximal expression of several other genes, including GCG, SST, PDX1, PAX4, MAFA and NKX2.2, which are indicative of endocrine cell types with a focus on pancreatic beta cells as indicated at the top of the heat map. The relative factor contributions for the activation of these different genes were then used to generate a secondary heat map representative of the gene induction logic and then ranked according to the compound's ability to induce INS. Dark blue colors indicate a high inductive capacity, while dark red colors indicative of a highly repressive capacity for activation of the genes are shown.
FIG. 21 Heat map showing descending factor contributions for the induction of INS. The four HD-DoE experiments shown in Example 19 were used for modeling the maximal expression of several other genes. These genes were GCG, SST, PDX1, PAX4, MAFA and NKX2.2. These genes are all indicative of endocrine cell types with a focus on the beta cell as indicated at the top of the heatmap. The relative factor contribution for the activation of these different genes were then used to generate a secondary heat map representative of these genes induction logic and then ranked order according to the compounds ability to induce INS. Dark blue indicates high inductive capacity, while dark red is indicative of a highly repressive effect for the activation of the genes shown.
as §5
To ascertain which factors could potentially favor the beta cell over other endocrine cell types, optimizers for markers of the other endocrine cell types and beta cell specific markers were compared. The relative factor contribution from the different optimizers were compared.
Optimizers for the main pancreatic endocrine hormones and beta cell-specific transcription factors were generated to compare their contribution factors for this series of HD-DoE. Compounds that could selectively favor the differentiation of the beta cell over that of the alpha and delta cells were identified in this manner.

de novo beta cells = experiment: Immunohistochemical validation of de novo beta cells, day 16 culture (PDX1, C-peptide); details: added to stage 3 media, FIG. 26
Protocol: FIG. 26 Immunohistochemical validation of the generation of the de novo beta cells. Cultures of the iPSC cell line CR01 was differentiated to a DFE state for 3 days. These cultures were then incubated in the presence of stage 2 media for an additional 3 days. These cultures were then incubated for an additional 10 days in the presence of quercetin, GSI-XX and A8301. The cultures were then fixed using formalin and stained for antibodies that recognize the proteins PDX1 and CPEP.
C-peptide staining was performed to distinguish between de novo generation of beta cells and the possible absorption of insulin from the culture media.

[4] = test system: iPSC derivatives (insulin secreting cells); experiment: GSIS assay of bioreactor produced iPSC derivatives with cAMP agonists; details: FIG. 39
Protocol: FIG. 39. Functionality of bioreactor produced insulin secreting cells occurs through cAMP agonism.
A glucose stimulated insulin secretion assay was performed to evaluate the functional maturity of the de novo beta cells generated. Assay samples had growth media removed and were washed once with PBS to remove any trace of media that may have been previously conditioned with secreted C-PEP. All samples were then incubated in the presence of basal media at 37 degrees Celsius for 15 minutes. Basal media consisted of RPMI containing 3 mM glucose. This media was then changed to either media supplemented with 17.5 mM glucose or 30 mM KCl and incubated for an additional 15 minutes.
Fully mature beta cells respond to incretins such as GLP1 through a cAMP mediated response. The iPSC derivatives are non-responsive to both GLP1 or a commonly used agonist of the GLP1 pathway EX4. It was shown that the receptor for these incretins (GLPR1) had very low expression in the iPSC-derivatives (FIG. 40). The rate of insulin secretion was also directly linked to the rate of mitochondrial respiration, as fully mature beta cells lack LDHA expression, making them only capable of metabolizing glucose through mitochondria respiration.

Compound: Cc1cccc(-c2nn(C(=S)Nc3ccccc3)cc2-c2ccnc3ccccc23)n1 [A8301]
- correlation with HNF1b activation (HNF1b; iPSC line CR01, HD-DoE, FIG. 2): negative correlation
- factor contribution, optimization of HNF1b (HNF1b; iPSC line CR01, HD-DoE, FIG. 2): 3.02
- correlation with FOXA2 activation (FOXA2 [1]; iPSC line CR01, HD-DoE, FIG. 3): positive correlation
- factor contribution, optimization of FOXA2 (FOXA2 [1]; iPSC line CR01, HD-DoE, FIG. 3): 17.72
- FOXA2 activation (immunohistochemical analysis) (FOXA2 [2]): increased FOXA2 activation over RA and LDN alone
- effect on INS induction (INS; heat map FIG. 21, dynamic profiling FIGS. 22-25): positive effect on INS induction, though with far less contribution

Compound: c1ccc2c(-c3cnn4cc(-c5ccc(N6CCNCC6)cc5)cnc34)ccnc2c1 [LDN193189]
- effect on HNF1b expression (HNF1b; dynamic profiling, FIG. 5): crucial
- factor contribution, optimization of HNF1b (HNF1b; iPSC line CR01, HD-DoE, FIG. 2): 31.26
- effect on FOXA2 expression (FOXA2 [1]; dynamic profiling, FIG. 5): crucial
- factor contribution, optimization of FOXA2 (FOXA2 [1]; iPSC line CR01, HD-DoE, FIG. 3): 31.11

Compound: O=C(NOC[C@H](O)CO)c1ccc(F)c(F)c1Nc1ccc(I)cc1F [PD0325901]
- factor contribution, optimization of HNF1b (HNF1b; iPSC line CR01, HD-DoE, FIG. 2): 15.01
- factor contribution, optimization of FOXA2 (FOXA2 [1]; iPSC line CR01, HD-DoE, FIG. 3): 29.01
- FOXA2 activation (immunohistochemical analysis) (FOXA2 [2]): increased FOXA2 activation over RA and LDN alone
- activation of the pancreatic field (PTF1A and PDX1), coefficient plots (PDX1; from DFE, FIG. 12): most critical to control

Compound: Cc1c(C)c(NCC(=O)N(C)C2CCN(Cc3ccc(C(N)=O)cc3)CC2)c(C)c(C)c1N [SUN11602]
- factor contribution, PDX1 activation (PDX1; DFE culture, HD-DoE, FIG. 11): 4.7
- effect on INS activation (INS (beta cell marker)): slightly negative effect

Compound: O=c1c(O)c(-c2ccc(O)c(O)c2)oc2cc(O)cc(O)c12 [quercetin]
- contribution factor, activation of INS (INS; Example 17, three HD-DoE panels, FIG. 18): 15.6
- effect on beta cell specific transcription factors / all genes optimized [3]: beneficial for all genes optimized
- endocrine conversion, de novo beta cell generation (immunohistochemical analysis) (de novo beta cells): increased overall endocrine conversion

Compound: GLP1: incretin, cAMP agonist (HAEGTFTSDVSSYLEGQAAKEFIAWLVKGR; ends and bridges not checked; UniProt P01275 98-127, looked up)
- increase in insulin secretion in GSIS assay [4]: did not occur
